Assays:
Assay type in all cases: cell-based, human
[1] = system: HUVEC; experiment: Mechanism study: SA-β-gal staining with NOS and Sirt1 inhibitors; settings: Saikosaponin C 20 μM, 33 mM high glucose 72 hours
Procedure: (§1) Similar to Experimental Example 1, a high-fat diet evaluation system at the cellular level was established. Specifically, […], which are vascular endothelial cells, were pretreated with Saikosaponin C at a concentration of 20 μM for 2 hours, and then treated with high glucose at a concentration of 33 mM for 72 hours (for SA-β-gal staining) or 36 hours (for the analysis of enzyme activity of NOS and Sirt1). Then, SA-β-gal staining, NOS enzyme activity, and Sirt1 enzyme activity were analyzed. To analyze whether or not NOS and Sirt1 protein are involved in the anti-vascular aging effect of Saikosaponin C and the relationship between NOS and Sirt1 protein, L-NG-nitro arginine methyl ester (L-NAME) (5 mM), an inhibitor of NOS, and EX-527 (10 μM), an inhibitor of Sirt1 protein, were used. […] The senescence of vascular endothelial cells was assessed through intracellular SA-β-gal staining (FIG. 8A). The activities of NOS (FIG. 8B) and Sirt1 protein (FIG. 8C) were measured using the NOS Activity Assay Kit and the Sirt1 Activity Assay Kit, respectively.

[2] = system: NOS in HUVEC; experiment: Mechanism study: NOS Activity Assay Kit with NOS and Sirt1 inhibitors; settings: Saikosaponin C 20 μM, 33 mM high glucose 36 hours
Procedure: as §1

[3] = system: Sirt1 in HUVEC; experiment: Mechanism study: Sirt1 Activity Assay Kit with NOS inhibitor; settings: L-NAME 5 mM, Saikosaponin C 20 μM, 33 mM high glucose 36 hours
Procedure: as §1

| Compound | anti-vascular aging effect of Saikosaponin C (SA-β-gal) after inhibitor pretreatment ([1]; EX-527 10 μM) | Saikosaponin C-mediated recovery of the reduction in NOS activity caused by high glucose ([2]; EX-527 10 μM) | anti-vascular aging effect of Saikosaponin C (SA-β-gal) after inhibitor pretreatment ([1]; L-NAME 5 mM) | Saikosaponin C-mediated recovery of the reduction in Sirt1 activity caused by high glucose [3] | Saikosaponin C-mediated recovery of the reduction in NOS activity caused by high glucose ([2]; L-NAME 5 mM) |
| --- | --- | --- | --- | --- | --- |
| NC(=O)C1CCCc2c1[nH]c1ccc(Cl)cc21 (centres unmarked) [EX-527] | significantly abolished | abolished | – | – | – |
| COC(=O)[C@@H](N)CCCNC(=N)N[N+](=O)[O-] [L-NAME, L-NG-nitro arginine methyl ester] | – | – | significantly abolished | did not abolish | abolished |

Source: US20250177425A1, “SAIKOSAPONIN C AS COMPOSITION FOR TREATING OR PREVENTING AGE-RELATED VASCULAR DISEASES INCLUDING ARTERIOSCLEROSIS” (AGINGTARGET, INC., priority 2022, published 2025)
